In article PMC7887271, “Fast acting allosteric phosphofructokinase inhibitors block trypanosome glycolysis and cure acute African trypanosomiasis in mice” (Nature Communications, 2021):
Values joined by “and” are separate entries in the source; they are usually repeats but may differ in a detail not shown here. Equal entries are not always repeated.

Test system: T. b. brucei GVR35-Luc2
Assay: T. b. brucei GVR35-Luc2 time-to-kill assay (luciferin)
Type: cell-based
Settings: for Luminescence (medium-subtracted), Average: average of replicates; for % Cell viability, individual replicates / % Inhibition, individual replicates / Luminescence (medium-subtracted), individual replicates: replicate wells; for Luminescence, Average / Luminescence, individual replicates: Time to kill assay for GVR35 cells
Procedure: Enzyme activity was measured using an aldolase/TIM linked assay at 25 °C. […] Experiments were carried out in duplicate. Data are presented as mean values ± standard deviation. […] Source data are provided as a Source Data File. b Kill time of CTCB-405 compared with existing HAT drugs in the clinic. […] Over 99% of trypanosomes were killed in under 30 min compared with much slower killing rates for the other drugs. The points on the graph for CTCB-405 were determined from two independent biological replicate experiments with each time point measured twice (using duplicate technical replicates). The ESD for each point on the graph is between 0.7 and 1.4%. For drugs in clinical use each point on the graph is the average of two technical replicates from one experiment (with a maximum difference of 7.8% for any of the points). Source data are provided as a Source Data File.
As predicted from the biology of the BSF that relies wholly on glycolysis for ATP production, inhibition of the pathway results in a very fast TTK. Two experimental methods were used to measure ATP levels as a real-time indicator of viability. For Tb427 parasites, a Cell Titre Glo kit was used and for the TbGVR35 bioluminescent strain, killing was assessed by adding luciferin which requires ATP to produce a luminescent signal (Supplementary Methods 4.3 and 4.4). […] The BSF of T. brucei cannot produce ATP by oxidative phosphorylation and is solely dependent on flux through the glycolytic pathway. The clear correlation between inhibitor dose and reduction in ATP production, as observed in the TTK assays strongly supports the proposed mode of action of the CTCB compounds is by blocking glycolysis. It is a long-established experimental observation that withdrawal of glucose nutrient leads to rapid loss of motility and cell death. It has recently been shown that the BSF of T. brucei can proliferate on high levels of glycerol; however, we have shown that addition of glycerol to the medium has little effect on parasite killing by the CTCB compounds (Supplementary Table 3).
The killing of T. b. brucei GVR35-Luc2 was assessed by adding D-luciferin to live cells resulting in the production of light in the presence of ATP and luciferase activity. Compounds of interest were serially diluted from 16 µM to 0.5 µM in Modified HMI-9 medium and added into sterile white, flat bottom 96-well plate (Greiner Inc.). 32,000 trypanosomes were added to each well. The plates were incubated at 37 °C and 5% CO2. At the end of each incubation, 200 µg/ml of D-luciferin was added to each well and incubated for 10 min. Luminescence was measured using a BMG plate reader and percentage cell viability versus incubation time was determined.

[1] = 0.5 h, mean, suramin, fexinidazole, SCYX-7158 11 µM, CTCB-405 4 µM
[2] = 1 h, mean, suramin, fexinidazole, SCYX-7158 11 µM, CTCB-405 4 µM
[3] = 6 h, mean, suramin, fexinidazole, SCYX-7158 11 µM, CTCB-405 4 µM
[4] = 8 h, mean, suramin, fexinidazole, SCYX-7158 11 µM, CTCB-405 4 µM
[5] = GVR35 TTK, 24 h incubation, average
[6] = GVR35 TTK, 24 h incubation, from average
[7] = GVR35 TTK, 24 h sheet, summary line marked "4"

CC1(C)OB(O)c2cc(NC(=O)c3ccc(F)cc3C(F)(F)F)ccc21 [SCYX-7158]
% Cell viability, single replicates (0.5 h): 82% and 93%
% Inhibition, single replicates (0.5 h): 18% and 6.51%
% Cell viability (0.5 h, average): 88%
% Inhibition [1]: 12%
% Cell viability, single replicates (1 h): 78%
% Inhibition, single replicates (1 h): 22%
% Cell viability (1 h, average): 80%
% Inhibition [2]: 20%
% Cell viability, single replicates (2 h): 84% and 77%
% Inhibition, single replicates (2 h): 16% and 23%
% Cell viability (2 h, average): 80%
% Cell viability, single replicates (4 h): 53% and 55%
% Inhibition, single replicates (4 h): 47% and 45%
% Cell viability (4 h, average): 54%
% Inhibition (4 h, mean, suramin, fexinidazole, SCYX-7158 11 µM, CTCB-405 4 µM): 46%
% Cell viability, single replicates (6 h): 30% and 31%
% Inhibition, single replicates (6 h): 70% and 69%
% Cell viability (6 h, average): 31%
% Inhibition [3]: 69%
% Cell viability, single replicates (8 h): 16% and 15%
% Inhibition, single replicates (8 h): 84% and 85%
% Cell viability (8 h, average): 16%
% Inhibition [4]: 84%
% Cell viability, Average [5]: -0.0868%
Luminescence (medium-subtracted), Average (GVR35 TTK, 24 h incubation): 8.5
% Inhibition [6]: 100%
% Cell viability, individual replicates (GVR35 TTK, 24 h incubation): -0.0698% and -0.104%
% Inhibition, individual replicates (GVR35 TTK, 24 h incubation): 100%
Luminescence (medium-subtracted), individual replicates (GVR35 TTK, 24 h incubation): 16.5 and 0.5
% Cell viability [7]: -0.085%
Luminescence, Average (0.5 hour incubation): 8054
Luminescence, individual replicates (0.5 hour incubation): 7697 and 8411
Luminescence, Average (1hour incubation): 9657
Luminescence, individual replicates (1hour incubation): 9531 and 9783
Luminescence, Average (2hour incubation): 11337
Luminescence, individual replicates (2hour incubation): 11424 and 11249
Luminescence, Average (4hour incubation): 9915
Luminescence, individual replicates (4hour incubation): 9827 and 10004
Luminescence, Average (6hour incubation): 10493
Luminescence, individual replicates (6hour incubation): 10240 and 10745
Luminescence, Average (8hour incubation): 4975
Luminescence, individual replicates (8hour incubation): 5108 and 4842
Luminescence, Average (24hour incubation): 8.5
Luminescence, individual replicates (24hour incubation): 17 and 0.5

CSc1ccc(OCc2ncc([N+](=O)[O-])n2C)cc1 [Fexinidazole, fexinidazole]
TTK (time-to-kill) value: > 20 h
% Cell viability, single replicates (0.5 h): 54% and 59%
% Inhibition, single replicates (0.5 h): 46% and 41%
% Cell viability (0.5 h, average): 57%
% Inhibition [1]: 43%
% Cell viability, single replicates (1 h): 46% and 57%
% Inhibition, single replicates (1 h): 54%
% Cell viability (1 h, average): 52%
% Inhibition [2]: 48%
% Cell viability, single replicates (2 h): 61%
% Inhibition, single replicates (2 h): 39%
% Cell viability (2 h, average): 57%
% Cell viability, single replicates (4 h): 58% and 63%
% Inhibition, single replicates (4 h): 42% and 37%
% Cell viability (4 h, average): 61%
% Cell viability, single replicates (6 h): 62% and 60%
% Inhibition, single replicates (6 h): 38% and 40%
% Cell viability (6 h, average): 61%
% Cell viability, single replicates (8 h): 55%
% Inhibition, single replicates (8 h): 45%
% Cell viability (8 h, average): 55%
% Inhibition [4]: 45%
% Cell viability, Average [5]: 18%
Luminescence (medium-subtracted), Average (GVR35 TTK, 24 h incubation): 18856.5
% Inhibition [6]: 83%
% Cell viability, individual replicates (GVR35 TTK, 24 h incubation): 16% and 19%
% Inhibition, individual replicates (GVR35 TTK, 24 h incubation): 84% and 81%
Luminescence (medium-subtracted), individual replicates (GVR35 TTK, 24 h incubation): 18923.5 and 18789.5
Luminescence, Average (0.5 hour incubation): 5213
Luminescence, individual replicates (0.5 hour incubation): 5083 and 5343
Luminescence, Average (1hour incubation): 6274
Luminescence, individual replicates (1hour incubation): 5678 and 6870
Luminescence, Average (2hour incubation): 8146
Luminescence, individual replicates (2hour incubation): 8389 and 7903
Luminescence, Average (4hour incubation): 11135
Luminescence, individual replicates (4hour incubation): 10890 and 11380
Luminescence, Average (6hour incubation): 20713
Luminescence, individual replicates (6hour incubation): 21007 and 20418
Luminescence, Average (8hour incubation): 17103
Luminescence, individual replicates (8hour incubation): 17279 and 16927
Luminescence, Average (24hour incubation): 18857
Luminescence, individual replicates (24hour incubation): 18924 and 18790

Cc1ccc(C(=O)Nc2ccc(S(=O)(=O)O)c3cc(S(=O)(=O)O)cc(S(=O)(=O)O)c23)cc1NC(=O)c1cccc(NC(=O)Nc2cccc(C(=O)Nc3cc(C(=O)Nc4ccc(S(=O)(=O)O)c5cc(S(=O)(=O)O)cc(S(=O)(=O)O)c45)ccc3C)c2)c1 [Suramin, suramin]
TTK (time-to-kill) value: > 20 h
% Cell viability, single replicates (0.5 h): 91% and 97%
% Inhibition, single replicates (0.5 h): 9% and 2.59%
% Cell viability (0.5 h, average): 94%
% Inhibition [1]: 6%
% Cell viability, single replicates (1 h): 87% and 92%
% Inhibition, single replicates (1 h): 13% and 7.55%
% Cell viability (1 h, average): 90%
% Inhibition [2]: 10%
% Cell viability, single replicates (2 h): 95% and 89%
% Inhibition, single replicates (2 h): 4.69% and 11%
% Cell viability (2 h, average): 92%
% Inhibition (2 h, mean, suramin, fexinidazole, SCYX-7158 11 µM, CTCB-405 4 µM): 8%
% Cell viability, single replicates (4 h): 86%
% Inhibition, single replicates (4 h): 14% and 8.56%
% Cell viability (4 h, average): 89%
% Cell viability, single replicates (6 h): 80% and 82%
% Inhibition, single replicates (6 h): 20% and 18%
% Cell viability (6 h, average): 81%
% Inhibition [3]: 19%
% Cell viability, single replicates (8 h): 62% and 63%
% Inhibition, single replicates (8 h): 38% and 37%
% Cell viability (8 h, average): 62%
% Inhibition [4]: 38%
% Cell viability, Average [5]: 1.08%
Luminescence (medium-subtracted), Average (GVR35 TTK, 24 h incubation): 1271
% Inhibition [6]: 99%
% Cell viability, individual replicates (GVR35 TTK, 24 h incubation): 1.06% and 1.11%
% Inhibition, individual replicates (GVR35 TTK, 24 h incubation): 99%
Luminescence (medium-subtracted), individual replicates (GVR35 TTK, 24 h incubation): 1370.5 and 1171.5
% Cell viability [7]: 1.08%
Luminescence, Average (0.5 hour incubation): 8640
Luminescence, individual replicates (0.5 hour incubation): 8520 and 8761
Luminescence, Average (1hour incubation): 10793
Luminescence, individual replicates (1hour incubation): 10604 and 10981
Luminescence, Average (2hour incubation): 13042
Luminescence, individual replicates (2hour incubation): 13027 and 13057
Luminescence, Average (4hour incubation): 16276
Luminescence, individual replicates (4hour incubation): 16058 and 16495
Luminescence, Average (6hour incubation): 27456
Luminescence, individual replicates (6hour incubation): 27109 and 27803
Luminescence, Average (8hour incubation): 19408
Luminescence, individual replicates (8hour incubation): 19222 and 19594
Luminescence, Average (24hour incubation): 1271
Luminescence, individual replicates (24hour incubation): 1371 and 1172
